# Experimental data taken from patent publication US20070225203A1, “Method and Composition for Preventing Multiple Organ Dysfunction Syndrome” (N.V. NUTRICIA, priority 2003, published 2007).
# How the values were obtained:
# [1] = biological target: xanthine oxidase (Homo sapiens, UniProt P47989); assay: Xanthine oxidase inhibition by flavonoids; format: biochemical
# [2] = Oxidative stress, plasma concentrations of malon dialdehyde
# [3] = tested on: HepG2 cells; assay: GTP concentration in folic acid challenged HepG2 cells; format: cell-based, human
# Description: HepG2 cells, a human hepatocarcinoma cell line, were obtained from ATCC. These were maintained in MEM supplemented with 10% FCS; 1% NEAA; 1% penicillin/streptomycin mixture. Cells were seeded primarily at a density of approximately 1-2×10^6 cells and were split and transferred to new flasks when showing 70-90% confluency. 96-well microtitre plates (ex Micronic, Leylstad, N L.), containing 0.35×10^6 cells per well were incubated for 24 hours at 37° C.; 5% CO2. HepG2's were folic acid challenged by addition of folic acid free media for 1 hour. This folic acid challenged cells were compared with cells that remained at an increasing concentration of folic acid or ribose.
# Nucleotides were measured as described by van Hoorn et al., Analytical Biochemistry (2003), 320, 82-87.
# 1. 6.5 hours incubation of HepG2 cells in either folic acid depleted media or media containing 2.27 μM folic acid
# Chain of xanthine oxidase (P47989 whole entry, species assumed): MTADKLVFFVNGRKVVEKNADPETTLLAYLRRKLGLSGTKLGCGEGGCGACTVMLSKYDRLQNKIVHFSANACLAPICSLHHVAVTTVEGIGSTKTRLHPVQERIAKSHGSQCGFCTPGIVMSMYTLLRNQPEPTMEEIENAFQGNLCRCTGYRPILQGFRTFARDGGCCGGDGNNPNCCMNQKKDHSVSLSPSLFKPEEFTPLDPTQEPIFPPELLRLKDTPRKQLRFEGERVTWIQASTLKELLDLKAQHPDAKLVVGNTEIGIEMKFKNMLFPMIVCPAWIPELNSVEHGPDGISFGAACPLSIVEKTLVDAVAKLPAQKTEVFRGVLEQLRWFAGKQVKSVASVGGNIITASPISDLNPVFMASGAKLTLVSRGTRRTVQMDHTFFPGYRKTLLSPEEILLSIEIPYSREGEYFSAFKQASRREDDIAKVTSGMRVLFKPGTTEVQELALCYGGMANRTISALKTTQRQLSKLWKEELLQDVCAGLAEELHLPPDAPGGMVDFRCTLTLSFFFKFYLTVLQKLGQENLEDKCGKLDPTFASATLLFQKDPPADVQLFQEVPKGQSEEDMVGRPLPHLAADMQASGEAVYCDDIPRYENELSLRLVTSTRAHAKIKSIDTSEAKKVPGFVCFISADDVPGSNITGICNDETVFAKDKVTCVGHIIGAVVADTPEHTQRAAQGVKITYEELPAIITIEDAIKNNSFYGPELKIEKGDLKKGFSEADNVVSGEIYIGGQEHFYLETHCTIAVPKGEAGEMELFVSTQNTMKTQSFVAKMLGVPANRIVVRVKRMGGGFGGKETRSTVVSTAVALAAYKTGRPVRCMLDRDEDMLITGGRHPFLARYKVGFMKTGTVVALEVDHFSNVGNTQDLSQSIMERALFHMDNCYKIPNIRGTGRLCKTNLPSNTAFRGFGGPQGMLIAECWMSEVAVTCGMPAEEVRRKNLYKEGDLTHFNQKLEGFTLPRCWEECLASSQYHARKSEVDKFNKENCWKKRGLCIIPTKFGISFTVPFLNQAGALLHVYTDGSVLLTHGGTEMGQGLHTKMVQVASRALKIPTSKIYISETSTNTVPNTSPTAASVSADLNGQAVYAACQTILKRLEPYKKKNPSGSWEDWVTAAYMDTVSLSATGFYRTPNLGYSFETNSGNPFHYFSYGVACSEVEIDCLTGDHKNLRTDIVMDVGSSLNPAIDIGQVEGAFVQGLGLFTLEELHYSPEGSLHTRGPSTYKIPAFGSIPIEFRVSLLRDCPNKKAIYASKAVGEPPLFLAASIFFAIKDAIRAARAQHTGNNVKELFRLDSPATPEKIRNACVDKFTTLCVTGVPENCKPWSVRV
xanthine oxidase inhibition [1],Compound,"oxidative stress, plasma concentrations of malon dialdehyde [2]","GTP concentration in HepG2 cells ([3]; single agent vs folic acid challenged cells, folic acid 2.27 μM, 6.5 hours)","GTP concentration in HepG2 cells, ribose on top of folic acid ([3]; combination of ribose with folic acid, FIG. 10)"
good xanthine oxidase inhibitors,O=c1cc(-c2ccc(O)cc2)oc2cc(O)cc(O)c12 [apigenin],inhibit oxidative stress,,
,Nc1nc2ncc(CNc3ccc(C(=O)N[C@@H](CCC(=O)O)C(=O)O)cc3)nc2c(=O)[nH]1 [folic acid],,significantly increased,
,O=C[C@H](O)[C@H](O)[C@H](O)CO [ribose],,,additive effect
good xanthine oxidase inhibitors,O=c1cc(-c2ccc(O)c(O)c2)oc2cc(O)cc(O)c12 [luteolin],inhibit oxidative stress,,

Compound,xanthine oxidase inhibition [1],"oxidative stress, plasma concentrations of malon dialdehyde [2]","GTP concentration in HepG2 cells ([3]; single agent vs folic acid challenged cells, folic acid 2.27 μM, 6.5 hours)","GTP concentration in HepG2 cells, ribose on top of folic acid ([3]; combination of ribose with folic acid, FIG. 10)"
O=c1c(O)c(-c2ccc(O)c(O)c2)oc2cc(O)cc(O)c12 [quercetin],good xanthine oxidase inhibitors,inhibit oxidative stress,,
